Measurements as given in patent US8039512B2, “Biologically active oils” (priority 2003, dated 2011).

Columns and labels:
[1] = tested on: Secreted PGE2 from 3T3 cells; assay: In-vitro prostaglandin PGE2 (COX pathways) EIA assay; type: cell-based, mouse; conditions: 50 µM
Experimental: This assay was performed using Cayman chemicals Prostaglandin E2 EIA Kit-Monoclonal, according to kit protocol. Each sample was assayed at three dilutions in duplicate. […] In particular the two samples produced dose dependent inhibition of secreted PGE2 from the mouse fibroblast cell line equivalent to or better than aspirin under the test conditions.

[2] = tested on: 5-lipoxygenase pathway of human neutrophils (PMN); assay: Lipoxygenase pathways (leukotrienes and HETE) HPLC assay in isolated PMN; type: cell-based; conditions: for 5-HETE synthesis / Isomer 1 (all trans isomer of LTB4) synthesis / Isomer 2 (all trans isomer of LTB4) synthesis / LTB4 synthesis: human PMN, arachidonic acid + A23187
From the text: The HPLC assay readily quantifies 5-HETE, 12-HETE, LTB4, and the two all trans-isomers of LTB-4, and thus gives quantitative data on the relative activities of the enzymes in the 5-lipoxygenase of neutrophils, as well as data on the 12-lipoxygenase pathway of platelets. Thus it is an ideal system to test potential inhibitors of these pathways.
The effects of inhibitory compounds may be tested on isolated human PMN and platelets, in which the pathways are activated by treating the PMN or platelets with arachidonic acid and the calcium ionophore A23187. The addition of arachidonic acid eliminates the PLA-2 step, and provides high levels of substrate for the pathway. Furthermore, such activation is known to maximally drive the pathway to produce the greatest synthesis of all the metabolites, and thus is also the least sensitive to inhibition.
All samples were dissolved in ethanol to give stock solutions of 10 mg/mL. Two further dilutions of each stock solution were made in ethanol at 5 and 1 mg/mL, making 10 test samples in all. […]
1. Up to 100 mL of blood was taken from a normal volunteer and anticoagulated with EDTA. Two mL of 4.5% EDTA in water was mixed with each 10 mL of blood.
2. A further 2 mL of 6.0% Dextran T500 was added to each of the 12 mL mixtures in 1, and placed in a water bath at 37° C., to sediment the red blood cells.
3. Following sedimentation in 2, the supernatant was carefully laid over 5 mL of Percoll, density 1.070. This was then spun at 500 g for 35 mins.
4. All the cells (PMN and remaining RBC) below the Percoll interface were removed with a plastic pipette and diluted at least 3-fold with Ca^2+/Mg^2+-free Dulbecco's phosphate buffer, and centrifuged at 600 g for 10 mins.
5. Following 4, the supernatant was carefully aspirated, and the pellet gently mixed with 1 mL of Ca^2+/Mg^2+-free Dulbecco's phosphate buffer by aspiration/deaspiration into a 1 ml plastic disposable pipette. A further 40 mL of Ca^2+/Mg^2+-free Dulbecco's phosphate buffer was then added and mixed by inversion. The cell suspension was then centrifuged at 600 g for 10 mins. 6. Following centrifugation, the supernatant was removed and the PMN pellet lysed with 10 mL of a 0.2% cold sodium chloride solution for 20 secs, followed by the addition of 10 mL of a 1.6% cold sodium chloride solution, and centrifuged at 600 g for 10 mins. 7. Following 6, the PMN pellet was vigorously mixed with 1 mL of Hank's buffer by rapid aspiration/deaspiration into a 1 mL plastic disposable pipette, and then finally suspended in Hank's buffer at 2.4×10^6 PMN/ml (as measured using a Coulter counter), in preparation for the leukotriene assay. Activation of Leukotriene Pathway 1. 1 mL of PMN suspension (2.4×10^6 PMN/ml) was transferred to a 13 mL glass tube (chromic acid washed) and placed in a water bath at 37° C. for 5 min prewarming. 2. Following prewarming, at time zero, 10 μL of each test compound in methanol (or equivalent volumes of methanol as control) was added to quadruplicate tubes over a 20 sec period. 3. At 5 min, 5 µL of 2 mM arachidonic acid (10 μM final) was added (4 tubes/20 secs). 4. At 10 min, 5 µL of 1 mM calcium ionophore (A23187) (5 μM final) was added (4 tubes/20 secs). 5. At 15 min the reaction was terminated by the addition of 100 μL 100 mM citric acid. This lowers the pH of the aqueous phase to less than 3, which is necessary for the extraction of the leukotrienes into the organic phase. 6. The pH of several samples was checked to ensure pH<3.0. (This is important). 7. 40 ng Prostaglandin B2 and 166 ng 15-HETE were added to each tube as the internal standard for LTB4 and 5-HETE respectively, and samples were mixed. 8. For Standard Curves LTB4 [1 ng/μl] (for a standard curve in the range 0-50 ng) and 5-HETE [5 ng/μL] (standard curve range 0-250 ng) were added to tubes containing 1 mL PMN, 100 μL of 100 mM citric acid and 40 ng PGB2 and 166 ng 15-HETE. 9. All tubes were vortexed. 10. […]

## CC(=O)Oc1ccccc1C(=O)O [Aspirin]
[1]; A23187
  % Control (secreted PGE2): 72.6 % Control
[1]; A23187, listed as aspirin
  % Control (secreted PGE2): around 72.6 % Control

## CCC(C)CCCCCCCCCCC(=O)O (centres unmarked) [Sample 12-MTA, 12-methyl tetradecanoic acid]
[2]; 2 μg/mL
  5-HETE synthesis: 55 ± 9 percentage of the methanol control
  Isomer 1 (all trans isomer of LTB4) synthesis: 73 ± 13 percentage of the methanol control
  Isomer 2 (all trans isomer of LTB4) synthesis: 60 ± 17 percentage of the methanol control
  LTB4 synthesis: 84 ± 5 percentage of the methanol control
[2]; 5 μg/mL
  5-HETE synthesis: 65 ± 3 percentage of the methanol control
  Isomer 1 (all trans isomer of LTB4) synthesis: 101 ± 12 percentage of the methanol control
  Isomer 2 (all trans isomer of LTB4) synthesis: 97 ± 9 percentage of the methanol control
  LTB4 synthesis: 101 ± 12 percentage of the methanol control
[2]; 10 μg/mL
  5-HETE synthesis: 46 ± 11 percentage of the methanol control
  Isomer 1 (all trans isomer of LTB4) synthesis: 59 ± 14 percentage of the methanol control
  Isomer 2 (all trans isomer of LTB4) synthesis: 68 ± 14 percentage of the methanol control
  LTB4 synthesis: 70 ± 17 percentage of the methanol control
[2]; 20 μg/mL
  5-HETE synthesis: 2 ± 4 percentage of the methanol control
  Isomer 1 (all trans isomer of LTB4) synthesis: 0 percentage of the methanol control
  Isomer 2 (all trans isomer of LTB4) synthesis: 0 percentage of the methanol control
  LTB4 synthesis: 0 percentage of the methanol control
[2]; 50 μg/mL
  5-HETE synthesis: 0 percentage of the methanol control
  Isomer 1 (all trans isomer of LTB4) synthesis: 0 percentage of the methanol control
  Isomer 2 (all trans isomer of LTB4) synthesis: 0 percentage of the methanol control
  LTB4 synthesis: 0 percentage of the methanol control
[2]; as low as 20 μg/mL
  Inhibition of the 5-LOX pathway: 100%
